These results are taken from patent US20210284618A1, “FURANOCHALCONES AS INHIBITORS OF CYP1A1, CYP1A2 AND CYP1B1 FOR CANCER CHEMOPREVENTION” (Council of Scientific & Industrial Research, priority 2016, published 2021).

A word on the IC50: it is the point on the concentration scale where inhibition reaches its midpoint. The low end stands for higher potency, the high end for lower potency. As a reminder, the inhibition is the drop in the measured response relative to a control, in per cent.

The target of one series is T1, CYP1A1 (Homo sapiens, UniProt P04798).
T1 construct: host or cells: yeast microsomes (Saccharosomes)
T1 sequence (P04798 1-512): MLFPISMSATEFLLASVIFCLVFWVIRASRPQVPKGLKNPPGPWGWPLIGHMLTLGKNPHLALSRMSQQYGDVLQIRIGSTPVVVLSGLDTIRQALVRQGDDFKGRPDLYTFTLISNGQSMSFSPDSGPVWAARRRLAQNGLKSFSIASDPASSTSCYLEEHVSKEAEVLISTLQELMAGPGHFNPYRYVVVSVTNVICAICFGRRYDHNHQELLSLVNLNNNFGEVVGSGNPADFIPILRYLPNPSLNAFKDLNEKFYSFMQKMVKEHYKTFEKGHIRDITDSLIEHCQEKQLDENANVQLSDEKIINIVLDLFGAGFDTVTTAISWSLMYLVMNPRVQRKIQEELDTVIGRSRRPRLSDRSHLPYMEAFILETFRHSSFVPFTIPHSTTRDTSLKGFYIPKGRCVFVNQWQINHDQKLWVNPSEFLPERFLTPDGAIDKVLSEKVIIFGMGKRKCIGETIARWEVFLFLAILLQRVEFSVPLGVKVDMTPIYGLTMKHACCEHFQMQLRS
Briefly: CYP1A1 inhibition in HEK293 cells transfected with pcDNA3.1/CYP1A1 (live cells). The series is classed as cell-based. The protocol: Example 26. In-vitro CYP450 inhibition in HEK293 cells transfected with pcDNA3.1/CYP1A1 against 5 μM EROD. […] The HEK293 cells used here was procured from ‘European Collection of Authenticated Cell Cultures’ (catalog number. ECACC 85120602).

The next series deals with T2, CYP1B1 (Homo sapiens, UniProt Q16678).
T2 sequence (Q16678 1-543): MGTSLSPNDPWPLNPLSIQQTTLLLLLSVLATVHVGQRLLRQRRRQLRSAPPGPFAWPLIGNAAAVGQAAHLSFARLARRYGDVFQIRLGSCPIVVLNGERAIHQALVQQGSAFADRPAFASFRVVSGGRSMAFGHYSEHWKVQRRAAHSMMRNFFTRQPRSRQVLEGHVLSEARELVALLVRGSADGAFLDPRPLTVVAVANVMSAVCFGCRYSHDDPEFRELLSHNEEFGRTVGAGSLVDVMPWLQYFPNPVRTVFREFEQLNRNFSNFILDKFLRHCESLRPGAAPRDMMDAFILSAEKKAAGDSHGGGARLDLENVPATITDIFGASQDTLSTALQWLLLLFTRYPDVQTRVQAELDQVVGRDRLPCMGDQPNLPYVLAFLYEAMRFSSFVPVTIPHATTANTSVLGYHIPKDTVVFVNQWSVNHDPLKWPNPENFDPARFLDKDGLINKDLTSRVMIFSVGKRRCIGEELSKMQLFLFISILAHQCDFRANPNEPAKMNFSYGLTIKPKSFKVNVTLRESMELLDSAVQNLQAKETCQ
Briefly: CYP1B1 inhibition in live human cells (HEK293). It counts as cell-based.

The target in another series is T3, CYP3A4 (Homo sapiens, UniProt P08684).
T3 construct: host or cells: yeast microsomes (Saccharosomes)
Briefly: CYP3A4 inhibition in Saccharosomes. It counts as biochemical. The protocol: Example 25. IC50 determination for best compound against CYP1A1, CYP1B1 and other CYPs in Saccharosomes. Compounds were serially diluted to six different concentrations with 10% DMSO in a Sero-Well white microplate. The experiment was performed in a similar way as described above in examples 23 and 24.

Bounds are passed on as bounds.

T3 sequence (P08684 whole entry): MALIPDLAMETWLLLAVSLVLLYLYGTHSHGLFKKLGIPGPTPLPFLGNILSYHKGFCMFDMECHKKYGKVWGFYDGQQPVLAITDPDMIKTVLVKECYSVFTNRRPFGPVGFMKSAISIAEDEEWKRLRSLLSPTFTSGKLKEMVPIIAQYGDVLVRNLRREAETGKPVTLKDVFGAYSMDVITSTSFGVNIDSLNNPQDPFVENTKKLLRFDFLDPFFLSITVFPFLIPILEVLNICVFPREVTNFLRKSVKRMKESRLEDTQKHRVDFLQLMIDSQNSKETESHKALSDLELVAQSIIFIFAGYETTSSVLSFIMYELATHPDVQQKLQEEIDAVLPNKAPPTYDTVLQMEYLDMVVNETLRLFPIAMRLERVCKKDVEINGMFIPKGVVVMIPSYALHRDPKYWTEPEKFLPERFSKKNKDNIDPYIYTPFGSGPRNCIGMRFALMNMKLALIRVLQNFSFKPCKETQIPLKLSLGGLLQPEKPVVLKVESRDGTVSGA

With `COc1c(C(=O)/C=C/c2cccnc2)c(O)c(OC)c2occc12` [Compound 8, 3-(4,7-dimethoxy-6-hydroxybenzofuran-5-yl)-1-(pyridin-3-yl)-3-oxopropene], the figures for the IC50 on CYP1A1, against CYP1B1 and against CYP3A4 were 470 nM, 265 nM and 3000 nM, respectively. For the same molecule, the “% inhibition of CYP1A1 in HEK293 cells at 10 μM” value on CYP1A1 (10 μM, 5 μM EROD) turned out to be 99.2%. The molecule further yielded an inhibition at 10 μM against CYP1A1 (human, HEK293 cells transfected with pcDNA3.1/CYP1A1 (live cells), probe EROD (5 μM), % inhibition of CYP1A1 in HEK293 cells at 10 μM, 10 μM, 5 μM EROD) of more than 80%.
